In patent publication US6156762A, “Indolomorphinan derivative and agent for curing and preventing cerebral disorder” (Toray Industries, Inc., priority 1997, dated 2000):

Tests used:
[1] = test system: middle cerebral artery ischemia model of rat; assay: Infarction inhibiting action in middle cerebral artery ischemia (MCAo-recirculation) model of rat; format: in vivo; conditions: ip, 24 h, 3 mg/kg i.p. 10 minutes before occlusion and 1 hour after recirculation, infarction volume one day after, vs control group, read-out: Rate of inhibition of infarction
From the text: It is also known that, in this way, in the acute stage of cerebral infarction, the lesion proceeds to the peripheral tissue from the core of infarction, and death of the nerve cells is extended with the passage of several days. This possible not only extends and creates grave aftereffects, and causes loss of motor and mental function, but also finally critically influences on the life. As an in vivo experimental model of cerebral infarction which is capable of precisely evaluating the clinical effect of a medicine in conformity with clinical conditions of the disease of a patient of cerebral infarction, the middle cerebral artery occlusion (MCAo)-recirculation model comprising an embolus with a yarn using Wister rates may be used [Document: Japan Journal of Stroke, vol. 8, 1 (1986)]. […] This action was evaluated by applying the MCAo model by the method which will be described below.
In rats of 10 weeks old, after etherization, a median incision of the cervical region was made up to the right carotid artery bifurcation under 1.0% halothane anesthetization with care to preserve the vagus nerves. The common carotid artery and the external carotid artery were separated from the periphery connective tissue with the right carotid artery bifurcation as the center, and each of the arteries was ligated by a 6-0 silk yarn (Eto yarn). Further, a yarn was wound on the internal carotid artery origin in preparation for ligation and fixing after insertion of the embolus. Next, the common carotid artery was incised, and the embolus was inserted from the common carotid artery to the internal carotid artery by about 15 to 16 mm, and ligated and fixed to the internal carotid artery by the silk yarn at the end thereof near the nylon yarn. In this operation, the end of the embolus was inserted into the anterior cerebral artery by about 1 to 2 mm beyond the middle cerebral artery bifurcation, and the inlet of the middle cerebral artery was occluded by the body (resin part) of the embolus for 1 hours. In recirculation, the embolus with a yarn was removed to recirculate the blood flow to the middle cerebral artery. 3 mg/kg of each of test compounds was intraperitoneally administered 10 minutes before occlusion and 1 hour after recirculation of the blood flow. One day after occlusion and recirculation, the whole body was perfused with physiologic saline through the heart, and the brain was extracted. The extracted brain was cooled with ice and water for 5 minutes, and cut at intervals of 2.0 mm to form 7 sections of the cerebral coronal surface. Each of the sections was stained with TTC (Triphenyltetrazolium Chloride), and fixed by a 5% neutral buffer formalin solution. In each of the sections, the infarction area in the right cerebral hemisphere was measured by an image analyzer (Olympus), and the infarction was evaluated by volume (mm^3). The infarction volume was compared with the infarction volume of a control group to calculate the rate of inhibition of infarction.

cultured nerve cells = assay: Action of protecting cultured nerve cells from glutamic acid toxicity (LDH leakage); format: cell-based, Wistar rat; conditions: rat fetal cerebral cortex cells, 10 mM glutamic acid, 24 hours, read-out: ED50 (the source's name)
From the text: It is known that when the blood flow to the brain is temporarily clogged due to cerebral ischemia, hypoxia, or an trauma, delayed cerebral neuronal death is induced [Document: Brain Research, Vol. 239, 57 (1982)]. A possible cause of such damage of the cerebral nerve cells is excitatory toxicity due to an excitatory neutotransmitter such as glutamic acid or the like, which is excessively released with ischemia [Document: Trends in Neuroscience, vol. 10, 299 (1987)]. […] This is a problem to be solved by the invention. This action was evaluated by using the in vitro evaluation system which will be described below.
A fetus was taken from the abdomen of a Wistar female rat on the 18 to 19th day of pregnancy under aseptic conditions, and the head of the fetus was opened to extract the brain. The brain was placed in an ice-cooled L-15 medium, and the cerebral cortex was separated under a microscope. The cerebral cortexes of about 30 rats were cut into pieces, and then suspended in 10 ml of a 0.25% trypsin solution and 0.2 ml of a 0.01% DNase solution, followed by culture at 37° C. for 30 minutes. Then, 2 ml of serum was added to the solution, and immediately the resultant mixture was centrifuged at 120 rpm for 2 minutes to separate the precipitates. To the precipitates was added 7 ml of a DF medium (a medium obtained by adding 20 nM of transferrin, 5 μg/ml of insulin, 20 nM of progesterone,60 nM of selenite, 50 U/ml of penicillin, and 50 U/ml of streptomycin to a mixture equivalent amounts of Dulbecco modified Eagle medium and F-12 medium), followed by 20 pipetting operations using a 10-ml plastic pipette to obtain a cell suspension. The cell suspension was filtered with nylon mesh (pore diameter 43 μm) to fractionate isolated cells. The thus-obtained isolated cells were diluted with a DF medium to a concentration of 6.0×10^5 cells/ml, and 500 μl of the diluted cells was inoculated in each of the 48 wells of a 48-well culture plate precoated with polylysine, followed by culture at 37° C. for 1 day in the presence of 5% of CO2. On the 2nd day, the medium was changed to a new DF medium, and 10 μl of a solution of 0.5M glutamic acid in distilled water was added to each of the wells (the final glutamic acid concentration was 10 mM), followed by further culture at 37° C. for 24 hours in the presence 5% of CO2. A test compound was dissolved in distilled water, 10% or 100% DMSO or 10% methanol, and 5 μl of the solution was added to each of the wells immediately before glutamic acid was added. As an index of nerve cell damage, the enzyme activity of lactic acid dehydrogenase (LDH) leaking from the damaged cells into the medium was measured. For each of the test compounds, the LDH leakage was measured at each of concentrations to determine a dose-response curve by the modified Cochran-Armitige method. The 50% effective dose (ED50) of each of the test compounds we determined from the curve.

| Structure (SMILES) | inhibition in vivo at 3 mg/kg [1] [%] | EC50 (cultured nerve cells) [nM] |
| --- | --- | --- |
| Oc1ccc2c3c1O[C@H]1c4[nH]c5c(ccc6ccccc65)c4C[C@@]4(O)[C@@H](C2)N(CC2CC2)CC[C@]314 [Compound 2, 17-cyclopropylmethyl-3,14β-dihydroxy-6,7-dehydro-4,5α-epoxy-6,7,2',3'-(6',7'-benzoindolo)morphinan] | 72 | 33 |
| Oc1ccc2c3c1O[C@H]1c4[nH]c5c(cc6c7c(cccc75)CC6)c4C[C@@]4(O)[C@@H](C2)N(CC2CC2)CC[C@]314 [Compound 3, 17-cyclopropylmethyl-3,14β-dihydroxy-6,7-dehydro-4,5α-epoxy-6,7,2',3'-(5',6"-ethano-6',7'-benzoindolo)morphinan] | 54 | 53 |
| Oc1ccc2c3c1O[C@H]1c4[nH]c5cc(C6CCCCC6)ccc5c4C[C@@]4(O)[C@@H](C2)N(CC2CC2)CC[C@]314 [Compound 5, 17-cyclopropylmethyl-3,14β-dihydroxy-6,7-dehydro-4,5α-epoxy-6,7,2',3'-(6'-cyclohexylindolo)morphinan] | 31 | 120 |
| CCCCCCCc1cccc2[nH]c3c(c12)C[C@@]1(O)[C@H]2Cc4ccc(O)c5c4[C@@]1(CCN2CC1CC1)[C@H]3O5 [Compound 6, 17-cyclopropylmethyl-3,14β-dihydroxy-6,7-dehydro-4,5α-epoxy-6,7,2',3'-(4'-heptylindolo)morphinan] | 33 | 400 |
| Oc1ccc2c3c1O[C@H]1c4[nH]c5ccc6ccccc6c5c4C[C@@]4(O)[C@@H](C2)N(CC2CC2)CC[C@]314 [Compound 8, 17-cyclopropylmethyl-3,14β-dihydroxy-6,7-dehydro-4,5α-epoxy-6,7,2',3'-(4',5'-benzoindolo)morphinan] | 49 | 200 |
| Oc1ccc2c3c1O[C@H]1c4[nH]c5c(cc(Br)c6ccccc65)c4C[C@@]4(O)[C@@H](C2)N(CC2CC2)CC[C@]314 [Compound 9, 17-cyclopropylmethyl-3,14β-dihydroxy-6,7-dehydro-4,5α-epoxy-6,7,2',3'-(5'-bromo-6',7'-benzoindolo)morphinan] | 9 | 110 |
| Oc1ccc2c3c1O[C@H]1c4[nH]c5c(ccc6cccc(Cl)c65)c4C[C@@]4(O)[C@@H](C2)N(CC2CC2)CC[C@]314 [Compound 12, 17-cyclopropylmethyl-3,14β-dihydroxy-6,7-dehydro-4,5α-epoxy-6,7,2',3'-(3"-chloro-6',7'-benzoindolo)morphinan] | 67 | 35 |
| Oc1ccc2c3c1O[C@H]1c4[nH]c5c(cc(F)c6ccccc65)c4C[C@@]4(O)[C@@H](C2)N(CC2CC2)CC[C@]314 [Compound 14, 17-cyclopropylmethyl-3,14β-dihydroxy-6,7-dehydro-4,5α-epoxy-6,7,2',3'-(5'-fluoro-6',7'-benzoindolo)morphinan] | 29 | 86 |
| COc1ccc2c3c1O[C@H]1c4[nH]c5c(ccc6ccccc65)c4C[C@@]4(O)[C@@H](C2)N(CC2CC2)CC[C@]314 [Compound 17, 17-cyclopropylmethyl-3-methoxy-14β-hydroxy-6,7-dehydro-4,5α-epoxy-6,7,2',3'-(6',7'-benzoindolo)morphinan] | 56 | 120 |
| O[C@@]12Cc3c([nH]c4c3ccc3ccccc34)[C@@H]3Oc4cccc5c4[C@@]31CCN(CC1CC1)[C@@H]2C5 [Compound 18, 17-cyclopropylmethyl-14β-hydroxy-6,7-dehydro-4,5α-epoxy-6,7,2',3'-(6',7'-benzoindolo)morphinan] | 23 | 900 |
| Oc1ccc2c3c1O[C@H]1c4[nH]c5c(cc6c7c(cccc75)-c5ccccc5-6)c4C[C@@]4(O)[C@@H](C2)N(CC2CC2)CC[C@]314 [Compound 19, 17-cyclopropylmethyl-3,14β-dihydroxy-6,7-dehydro-4,5α-epoxy-6,7,2',3'-(5',6"-benzeno-6',7'-benzoindolo)morphinan] | 29 | 200 |
| Oc1ccc2c3c1O[C@H]1c4[nH]c5c6c(ccc5c4C[C@@]4(O)[C@@H](C2)N(CC2CC2)CC[C@]314)-c1ccccc1C6 [Compound 20, 17-cyclopropylmethyl-3,14β-dihydroxy-6,7-dehydro-4,5α-epoxy-6,7,2',3'-(6',7',3",2"-indenoindolo)morphinan] | 10 | 27 |
| NCCCn1c2c(c3ccc4ccccc4c31)C[C@@]1(O)[C@H]3Cc4ccc(O)c5c4[C@@]1(CCN3CC1CC1)[C@H]2O5 [Compound 25, 17-cyclopropylmethyl-3,14β-dihydroxy-6,7-dehydro-4,5α-epoxy-6,7,2',3'-[1'-(3-aminopropyl)-6',7'-benzoindolo]morphinan] | 15 | 300 |
| O=C(NCCCn1c2c(c3ccccc31)C[C@@]1(O)[C@H]3Cc4ccc(O)c5c4[C@@]1(CCN3CC1CC1)[C@H]2O5)c1ccccc1 [Compound 61, 17-cyclopropylmethyl-3,14β-dihydroxy-6,7-dehydro-4,5α-epoxy-6,7,2',3'-[1'-(3-benzamidopropyl)indolo]morphinan] | 29 | 140 |
| O=C(NCCCn1c2c(c3ccc4ccccc4c31)C[C@@]1(O)[C@H]3Cc4ccc(O)c5c4[C@@]1(CCN3CC1CC1)[C@H]2O5)c1cccnc1 [Compound 66, 17-cyclopropylmethyl-3,14β-dihydroxy-6,7-dehydro-4,5α-epoxy-6,7,2',3'-[1'-(3-nicotinamidopropyl)-6',7'-benzoindolo]morphinan] | 25 | 400 |
| Oc1ccc2c3c1O[C@H]1c4c(c5ccc6ccccc6c5n4CCCNC(=S)NCc4ccccc4)C[C@@]4(O)[C@@H](C2)N(CC2CC2)CC[C@]314 [Compound 67, 17-cyclopropylmethyl-3,14β-dihydroxy-6,7-dehydro-4,5α-epoxy-6,7,2',3'-[1'-[3-(N'-benzylthioureido)propyl]-6',7'-benzoindolo]morphinan] | 39 | 27 |
| Oc1ccc2c3c1O[C@H]1c4c(c5ccc6ccccc6c5n4Cc4ccccc4)C[C@@]4(O)[C@@H](C2)N(CC2CC2)CC[C@]314 [Compound 69, 17-cyclopropylmethyl-3,14β-dihydroxy-6,7-dehydro-4,5α-epoxy-6,7,2',3'-(1'-benzyl-6',7'-benzoindolo)morphinan] | 69 | 9.3 |
| Oc1ccc2c3c1O[C@H]1c4c(c5ccc6ccccc6c5n4Cc4ccc(F)cc4)C[C@@]4(O)[C@@H](C2)N(CC2CC2)CC[C@]314 [Compound 70] | 34 | 15 |
